Assay results published in patent US4968826A, “Platinum complexes and antitumor agents containing them as an active ingredient” (Shionogi & Co., Ltd., priority 1989, dated 1990).

Tests used:
Colon tumor 38 = test: Antitumor activity against Colon tumor 38 transplanted in mice; assay type: in vivo, BDF1 mice; conditions: for chemotherapy index (CI): from ED50 and LD50, the greater, the more effective; for ED 50 (dose of 50% growth inhibition in the mean tumor size): i.v. on next day and 8th day after
From the text: Antitumor activity against Colon tumor 38:
A tumor segment of Colon tumor 38 was transplanted beneath the dorsal skin of BDF1 mice (6 to 10 mice in each group), and the test compounds were intravenously administered on the next day and on the 8th day after the next day, respectively. As solvent for injection, 0.9% physiological saline was used.
Test Compounds A, C, D and E were same as those used in Experiment 1.

L1210 = test: Antitumor effect (ILS) in mice inoculated i.p. with murine leukemia L1210; assay type: in vivo, murine leukemia cells in BDF1 mice; conditions: for ILS30 (dose of achieving 30% ILS) / ILS max (dose of achieving the maximum ILS): i.p.; for Number of mice survived 30 days or longer: of 7 mice; for chemotherapy index (CI): from ILS30 and ILSmax, the greater, the more effective
From the text: (§1) Antitumor activities against murine leukemia cells (L1210) and cisplatin-resistant murine leukemia cells (L1210/CDDP):
(§2) Murine leukemia L1210 (or L1210/CDDP) ascitic cells (1×10^5 cells) (5×10^5 cells for L1210/CDDP) were intraperitoneally inoculated to BDF1 mice (each group consisting 6~10 mice), and on the next day a predetermined amount of the test compound was intraperitoneally administered. 0.9% physiological saline was used as a solvent for injection.
(§3) From the average survival days (a) in each test group and those (b) of the non-treated control group, the increase of lifespan (ILS) was calculated according to the following formula. [formula]
(§4) As compared with the non-treated control group, the dose of achieving 30% ILS (ILS30) and the dose of achieving the maximum ILS (ILSmax) were obtained, from which the chemotherapy index (CI) was calculated. [formula]

L1210/CDDP = test: Antitumor effect (ILS) in mice inoculated i.p. with cisplatin-resistant murine leukemia L1210/CDDP; assay type: in vivo, murine leukemia cells in BDF1 mice; conditions: for ILS30 (dose of achieving 30% ILS) / ILSmax (dose of achieving the maximum ILS): i.p.; for Number of mice surviving 30 days or longer: A: of 6 mice; for chemotherapy index (CI): from ILS30 and ILSmax, the greater, the more effective
From the text: as §1, §2, §3, §4

[1] = system: murine nucleated bone marrow cells; test: Hemotoxicity: nucleated bone marrow cell count (NBMC) in femora; assay type: in vivo, male CDF1 mice; conditions: 4 days after
From the text: (§5) Influence against murine nucleated bone marrow cell count, megakaryocyte count and platelet count in peripheral blood:
(§6) After a single intravenous administration of test compounds to male CDF1 mice (7 weeks old), hemotoxicity was investigated by counting the nucleated bone marrow cell in femora (NBMC), megakaryocyte (MEG) and platelet (PLT) in peripheral blood. Measuring timing was taken when the three indices reached the minimal value, namely 4 days after administration for NBMC, and 7 days after for MEG and PLT.
(§7) Changes in the counts of nucleated bone marrow cells (NBMC), megakaryocytes (MEG) and platelets (PLT) in peripheral blood induced by administration of the test compounds are shown as hemotoxicity, expressed as the ratio of the value of each index in the test group to that of the non-treated conrol group as a percentage.

[2] = system: platelets in peripheral blood; test: Hemotoxicity: platelet count (PLT) in peripheral blood; assay type: in vivo, male CDF1 mice; conditions: 7 days after
From the text: as §5, §6, §7

megakaryocytes = test: Hemotoxicity: megakaryocyte count (MEG); assay type: in vivo, male CDF1 mice; conditions: 7 days after
From the text: as §5, §6, §7

kidneys = test: Evaluation of nephrotoxicity in mice; assay type: in vivo, male CDF1 mice; conditions: for Creatinine / Urea nitrogen: mouse, in vivo, iv
Protocol: Evaluation of nephrotoxicity in mice:
After a single intravenous administration of Test Compound A to male CDF1 mice (6 weeks old) at a rate of 160 or 320 mg/kg*, the levels of creatinine and urea nitrogen in plasma were measured. The mice were presented for pathological examination of kidneys four days after administration. (*: 320 mg/kg would be a lethal dose if the observation period was further extended.)

[3] = 30.0 mg/kg (1/6 LD90) single i.v.

Q: Which “chemotherapy index (CI)” value (Colon tumor 38) does the source give for “(1R,2R-Diaminocyclohexane)[2-hydroxy-2-methylbutyrato(2-)-O^1, O^2 -]platinum (II) [Test Compound C]” here?
A: The value was 4.3.

Q: What about the “ED 50 (dose of 50% growth inhibition in the mean tumor size)” value (Colon tumor 38) of the same compound?
A: Its value is 106.2 mg/kg.

Q: For `N.N.[Cl][Pt][Cl]` [Test Compound D, Cisplatin, reference compound], which “ED 50 (dose of 50% growth inhibition in the mean tumor size)” value (Colon tumor 38) is on record?
A: Its value is 18.3 mg/kg.

Q: And the “ILS30 (dose of achieving 30% ILS)” value (L1210)?
A: The value was 2.7 mg/kg.

Q: What about the “ILS max (dose of achieving the maximum ILS)” value (L1210) of the same compound?
A: The value was 10 mg/kg.

Q: And the “ILS30 (dose of achieving 30% ILS)” value (L1210/CDDP)?
A: The value was “ineffective”.

Q: Which “increase of lifespan (ILS)” value (L1210; 10 mg/kg i.p.) does the source give for “(1R,2R-Diaminocyclohexane)[1-hydroxy-1-cyclopropanecarboxylato(2-)-O^1,O^2 ]platinum (II) [Test Compound B]” here?
A: Its value is 10%.

Q: And the “increase of lifespan (ILS)” value (L1210; 20 mg/kg i.p.)?
A: Its value is 21%.

Q: What about the “increase of lifespan (ILS)” value (L1210; 40 mg/kg i.p.) of the same compound?
A: The value was 22%.

Q: And the “increase of lifespan (ILS)” value (L1210; 80 mg/kg i.p.)?
A: Its value is 66%.

Q: And the “increase of lifespan (ILS)” value (L1210; 160 mg/kg i.p.)?
A: Its value is > 83%.

Q: And the “Number of mice survived 30 days or longer” value (L1210; 160 mg/kg i.p.)?
A: Its value is 2.

Q: What about the “chemotherapy index (CI)” value (L1210) of the same compound?
A: The value was 3.6.

Q: What about the “ILS30 (dose of achieving 30% ILS)” value (L1210) of the same compound?
A: Its value is 45 mg/kg.

Q: And the “ILS max (dose of achieving the maximum ILS)” value (L1210)?
A: Its value is 160 mg/kg.

Q: What about the “increase of lifespan (ILS)” value (L1210/CDDP; 5 mg/kg i.p.) of the same compound?
A: The value was 6%.

Q: And the “increase of lifespan (ILS)” value (L1210/CDDP; 10 mg/kg i.p.)?
A: Its value is 14%.

Q: And the “increase of lifespan (ILS)” value (L1210/CDDP; 20 mg/kg i.p.)?
A: Its value is 4%.

Q: And the “increase of lifespan (ILS)” value (L1210/CDDP; 40 mg/kg i.p.)?
A: Its value is > 93%.

Q: And the “Number of mice surviving 30 days or longer” value (L1210/CDDP; 40 mg/kg i.p., B: of 7 mice)?
A: Its value is 3.

Q: What about the “increase of lifespan (ILS)” value (L1210/CDDP; 80 mg/kg i.p.) of the same compound?
A: The value was > 179%.

Q: What about the “Number of mice surviving 30 days or longer” value (L1210/CDDP; 80 mg/kg i.p., B: of 7 mice) of the same compound?
A: Its value is 6.

Q: And the “increase of lifespan (ILS)” value (L1210/CDDP; 160 mg/kg i.p.)?
A: Its value is -16%.

Q: What about the “chemotherapy index (CI)” value (L1210/CDDP) of the same compound?
A: The value was 3.3.

Q: And the “ILS30 (dose of achieving 30% ILS)” value (L1210/CDDP)?
A: The value was 24 mg/kg.

Q: What about the “ILSmax (dose of achieving the maximum ILS)” value (L1210/CDDP) of the same compound?
A: Its value is 80 mg/kg.

Q: What about the Solubility in water of the same compound?
A: The Solubility in water was 30 mg/mL.

Q: For `N.N.O=C([O-])C1(C(=O)[O-])CCC1.[Pt+2]` [Test Compound E, Carboplatin], which “ED 50 (dose of 50% growth inhibition in the mean tumor size)” value (Colon tumor 38) is on record?
A: The value was “Ineffective”.

Q: What about the “Hemotoxicity NBMC (ratio to non-treated control)” value [1, 3] of the same compound?
A: Its value is 78 percentage.

Q: And the “Hemotoxicity NBMC (ratio to non-treated control)” value ([1]; 60.0 mg/kg single i.v.)?
A: The value was 75 percentage.

Q: And the “Hemotoxicity NBMC (ratio to non-treated control)” value ([1]; 120.0 mg/kg single i.v.)?
A: Its value is 28 percentage.

Q: And the “Hemotoxicity PLT (ratio to non-treated control)” value [2, 3]?
A: The value was 89 percentage.

Q: What about the “Hemotoxicity PLT (ratio to non-treated control)” value ([2]; 60.0 mg/kg single i.v.) of the same compound?
A: Its value is 65 percentage.

Q: And the “Hemotoxicity PLT (ratio to non-treated control)” value ([2]; 120.0 mg/kg single i.v.)?
A: Its value is 35 percentage.

Q: And the “Hemotoxicity MEG (ratio to non-treated control)” value (megakaryocytes; [3])?
A: The value was 60 percentage.

Q: And the “Hemotoxicity MEG (ratio to non-treated control)” value (megakaryocytes; 60.0 mg/kg single i.v.)?
A: The value was 45 percentage.

Q: What about the “Hemotoxicity MEG (ratio to non-treated control)” value (megakaryocytes; 120.0 mg/kg single i.v.) of the same compound?
A: Its value is 8 percentage.

Q: And the “ILS30 (dose of achieving 30% ILS)” value (L1210/CDDP)?
A: The value was “ineffective”.

Q: What about the Solubility in water of the same compound?
A: The Solubility in water was 16 mg/mL.

Q: Which results are given for “(1R,2R-Diaminocyclohexane)[1-hydroxy-1-cyclopentanecarboxylato(2-)-O^1,O^2 ]platinum (II) [Test Compound A]”?
A: chemotherapy index (CI) (Colon tumor 38): 2.7; ED 50 (dose of 50% growth inhibition in the mean tumor size) (Colon tumor 38): 164.9 mg/kg; Hemotoxicity NBMC (ratio to non-treated control) ([1]; 31.0 mg/kg single i.v.): 108 percentage; Hemotoxicity NBMC (ratio to non-treated control) ([1]; 62.0 mg/kg (1/5 LD90) single i.v.): 87 percentage; Creatinine (kidneys; 160 mg/kg): 0.26; Urea nitrogen (kidneys; 160 mg/kg): 22.6 mg/dL; Creatinine (kidneys; 320 mg/kg): 0.27; Urea nitrogen (kidneys; 320 mg/kg): 23.3 mg/dL; lethal dose (kidneys; single i.v., male CDF1 mice, if the observation period was further extended): 320 mg/kg; increase of lifespan (ILS) (L1210; 5 mg/kg i.p.): 10%; increase of lifespan (ILS) (L1210; 10 mg/kg i.p.): 16%; increase of lifespan (ILS) (L1210; 20 mg/kg i.p.): 19%; increase of lifespan (ILS) (L1210; 40 mg/kg i.p.): 37%; Number of mice survived 30 days or longer (L1210; 40 mg/kg i.p.): 1; increase of lifespan (ILS) (L1210; 80 mg/kg i.p.): > 81%; Number of mice survived 30 days or longer (L1210; 80 mg/kg i.p.): 3; increase of lifespan (ILS) (L1210; 160 mg/kg i.p.): > 168%; Number of mice survived 30 days or longer (L1210; 160 mg/kg i.p.): 1; increase of lifespan (ILS) (L1210; 320 mg/kg i.p.): 14%; chemotherapy index (CI) (L1210): 5.2; ILS30 (dose of achieving 30% ILS) (L1210): 31 mg/kg; ILS max (dose of achieving the maximum ILS) (L1210): 160 mg/kg; increase of lifespan (ILS) (L1210/CDDP; 5 mg/kg i.p.): 1%; increase of lifespan (ILS) (L1210/CDDP; 10 mg/kg i.p.): 5%; increase of lifespan (ILS) (L1210/CDDP; 20 mg/kg i.p.): > 50%; Number of mice surviving 30 days or longer (L1210/CDDP; 20 mg/kg i.p.): 2; increase of lifespan (ILS) (L1210/CDDP; 40 mg/kg i.p.): > 56%; Number of mice surviving 30 days or longer (L1210/CDDP; 40 mg/kg i.p., B: of 7 mice): 2; increase of lifespan (ILS) (L1210/CDDP; 80 mg/kg i.p.): > 110%; Number of mice surviving 30 days or longer (L1210/CDDP; 80 mg/kg i.p., B: of 7 mice): 4; increase of lifespan (ILS) (L1210/CDDP; 160 mg/kg i.p.): 1%; chemotherapy index (CI) (L1210/CDDP): 5.5; ILS30 (dose of achieving 30% ILS) (L1210/CDDP): 14.5 mg/kg; ILSmax (dose of achieving the maximum ILS) (L1210/CDDP): 80 mg/kg; Solubility in water: > 500 mg/mL
